Results reported in patent US20250228826A1, “COMBINATION OF A GREMLIN-1 ANTAGONIST WITH AN INHIBITOR OF RAS-RAF-MEK-ERK SIGNALLING” (UCB BIOPHARMA SRL, priority 2022, published 2025).
“And” between values parts separate entries of the source, which are not always exact repeats. Identical values can stand only once.

How the values were obtained:
[1] = tested on: pancreatic tumours in KPC mice; assay: Survival of KPC mice from start of treatment, Kaplan-Meier and Log-Rank (Examples 3 and 4); type: in vivo; settings: for Median survival: KPC mice survival cohort
Text: (§1) LSL-Kras^G12D/+; Trp53^R172H/+; Pdx1-Cre (KPC) mice have been described previously (Hingorani et al., 2005). Mice were generated by crossing mice bearing Pdx1-Cre, and conditional LSL-KrasG12D or LSL-Trp53R172H alleles (strains 01XJ6 and 01XL9, Mouse Models of Human Cancer Consortium [MMHCC], NCI-Frederick, Frederick, MD, USA). Mice on a mixed background were bred in-house at the CRUK Beatson Institute and maintained in conventional caging with environmental enrichment, access to standard chow and water ad libitum. Genotyping was performed by Transnetyx (Cordoba, TN, USA). Mice of both sexes were recruited onto study. All animal experiments were performed under a UK Home Office licence and approved by the University of Glasgow Animal Welfare and Ethical Review Board.
Mice were monitored 3 times weekly until a diagnosis of pancreatic cancer was made by abdominal palpation and confirmed by ultrasound imaging. […] There were >12 mice per group. Mice were monitored daily and sacrificed either at 7 days post-initiation of treatment (4 mice per group) or when reaching ethical endpoint (>8 mice per group, symptoms include abdominal distension, cachexia, intermittent hunching or reduced mobility, piloerection, mild diarrhoea, anaemia). Statistical assessment of survival of these mice from start of treatment was carried out by Kaplan-Meier and Log-Rank analysis.
Mice were monitored at least weekly by palpation until pancreatic tumours were detectable.
For the survival cohort (Table 4), high resolution ultrasound imaging was performed weekly over the treatment period in order to monitor the tumour burden of each individual mouse on treatment. Mice remained on study and were closely monitored until ethical endpoint was reached, at which time they were sacrificed as per institutional guidelines.

[2] = tested on: pancreatic tumours in KPC mice; assay: Survival of KPC mice, Cox's proportional hazards model (Example 5); type: in vivo, mouse; settings: for Median survival: KPC mice, Example 5 cohort (Table 8), Ab7326 mIgG1 30 mg/kg s.c. twice weekly, Selumetinib 25 mg/kg p.o. b.i.d., UCB-554 10 mg/kg p.o. every 2 days; for Hazard ratio Ab7326/treatment: comparator Ab7326 alone
Text: as §1
(§2) Mice were monitored 3 times weekly until a diagnosis of pancreatic cancer was made by abdominal palpation and confirmed by ultrasound imaging. […] Mice were monitored daily and sacrificed when reaching ethical endpoint.
(§3) Statistical assessment of survival of these mice from start of treatment was carried out using a Cox's proportional hazards model to calculate hazard ratios. Tumour volume data at day 7 data were analysed using a linear model suitable for a randomised design, fitting Treatment Tumour volume at day 0 was used as a covariate to increase the precision of the estimates.

[3] = tested on: pancreatic tumours in KPC mice; assay: Tumour volume by 3D ultrasound imaging in KPC mice (Example 5); type: in vivo, mouse
Description: The VisualSonics Vevo 3100 preclinical imaging platform (FUJIFILM VisualSonics, Toronto, Canada) was used for high-resolution ultrasound imaging to confirm tumour diagnosis and for weekly monitoring of tumour progression. Anaesthesia was induced and maintained with a mixture of isoflurane and medical air. Tumour volume was calculated weekly for each mouse and plotted longitudinally.
as §2, §3
The volume of the pancreatic tumours in control or treated KPC mice was measured over time using 3D tumour imaging by ultrasound.

| SMILES | Median survival ([1]; Example 4, same doses as Table 4) | Median survival ([1]; Table 4 (text b395 gives days), Ab7326 mIgG1 30 mg/kg s.c. twice weekly, Selumetinib 25 mg/kg p.o. b.i.d., Selumetinib arm historical data) | Days on Rx ([1]; survival of individual KPC mice on treatment, one line per mouse (Table 6)) | Median survival [2] | Hazard ratio Vehicle/treatment ([2]; Table 10, combined dataset Table 4 + Table 8, Cox model) | Hazard ratio Ab7326/treatment ([2]; Table 10, combined dataset Table 4 + Table 8) | tumour volume at day 7 after start of treatment compared to vehicle or Ab7326 treatment alone [3] | survival of KPC mice over vehicle only control or Ab7326 treatment ([2]; Example 5 cohort, in words) | Hazard ratio Vehicle/treatment ([2]; Table 9, Example 5 cohort, Cox model, >1 favours treatment) | Hazard ratio Ab7326/treatment ([2]; Table 9, Example 5 cohort, Cox model) |
| --- | --- | --- | --- | --- | --- | --- | --- | --- | --- | --- |
| Cn1cnc2c(F)c(Nc3ccc(Br)cc3Cl)c(C(=O)NOCCO)cc21 [Selumetinib, 6-(4-bromo-2-chloroanilino)-7-fluoro-N-(2-hydroxyethoxy)-3-methylbenzimidazole-5-carboxamide] | 17 days | 17 | 9 Days and 13 Days and 15 Days and 17 Days (2×) and 20 Days and 32 Days and 33 Days | 22 days | 1.77 | 1.31 | mean tumour volume is reduced |  |  |  |
| NCC1CN(C(=O)c2c(Nc3ccc(I)cc3F)sc3ncccc23)C1 [UCB-554, [3-(Aminomethyl)azetidin-1-yl]-{2-[(2-fluoro-4-iodophenyl)amino]thieno[2,3-b]pyridin-3-yl}-methanone] |  |  |  | 21 days |  |  | tumour volume is reduced | moderate increase in survival | 2.04 | 2.50 |
